According to ChEMBL document CHEMBL4411318, “Discovery of a Series of 2'-α-Fluoro,2'-β-bromo-ribonucleosides and Their Phosphoramidate Prodrugs as Potent Pan-Genotypic Inhibitors of Hepatitis C Virus” (J Med Chem, 2019):
One block for each compound: values may come before it.

Assays:
[1] = system: Huh-7; assay: Cytotoxicity against human HuH7 cells assessed reduction in cell viability after 3 to 5 days by cellular ribosomal RNA amplification assay
[2] = target: RNA-directed RNA polymerase (Hepacivirus hominis) (UniProt O39930); conditions: Hepatitis C virus subtype 1b
[3] = Cytotoxicity against human CCRF-CEM assessed reduction in cell viability after 4 days by MTT assay; assay type: cell-based; conditions: CCRF-CEM cells
[4] = system: Vero; assay type: cell-based; conditions: chlorocebus sabaeus, 72 h
[5] = Cytotoxicity against human HuH7 cells assessed reduction in cell viability after 3 to 5 days by MTT assay; assay type: cell-based, Huh-7
[6] = Cytotoxicity against human PBMC assessed reduction in cell viability after 5 days by MTT assay; assay type: cell-based; conditions: PBMC
[7] = target: DNA-directed RNA polymerase, mitochondrial (Homo sapiens, UniProt O00411); assay: Substrate activity at human POLRMT assessed as 5-radiolabled RNA/DNA incorporation levels at 100 uM after 2 hrs by PAGE analysis; assay type: ADME
[8] = system: HepG2; assay: Mitochondrial toxicity in human HepG2 cells assessed as lactic acid production at 50 uM followed by medium plus drugs replenishment every 3 to 4 days for 14 days relative to control; assay type: cell-based; conditions: hepg2, 336 h
[9] = system: nuclear ribosomal-DNA level; assay: in vitro; conditions: human, HepG2 cells
[10] = system: nuclear ribosomal-DNA level; assay: Mitochondrial toxicity in human HepG2 cells assessed as inhibition of nuclear ribosomal-DNA level at 50 uM followed by medium plus drugs replenishment every 3 to 4 days for 14 days relative to control; assay type: cell-based
[11] = system: cytochrome c oxidase subunit 2 DNA level; assay: Mitochondrial toxicity in human HepG2 cells assessed as inhibition of cytochrome c oxidase subunit 2 DNA level followed by medium plus drugs replenishment every 3 to 4 days for 14 days relative to control; assay type: cell-based
[12] = Stability in Sprague-Dawley rat plasma assessed as compound remaining at 2 uM after 2 hrs by LC-MS/MS analysis; assay type: ADME, cell-free; conditions: read-out: Stability
[13] = Stability in Beagle dog plasma assessed as compound remaining at 2 uM up to 2 hrs by LC-MS/MS analysis; assay type: ADME, cell-free, Canis lupus familiaris; conditions: read-out: Stability
[14] = system: cytochrome c oxidase subunit 2 DNA level; assay: Mitochondrial toxicity in human HepG2 cells assessed as inhibition of cytochrome c oxidase subunit 2 DNA level at 50 uM followed by medium plus drugs replenishment every 3 to 4 days for 14 days relative to control; assay type: cell-based
[15] = Mitochondrial toxicity in human HepG2 cells assessed as reduction in cell viability after 14 days in presence of glucose supplemented media by ATP depletion assay; assay type: cell-based
[16] = Drug metabolism in Beagle dog liver assessed as formation of triphosphate form parent nucleoside at 10 mg/kg, po measured up to 4 hrs by LC-MS/MS analysis; conditions: in vivo
[17] = target: RNA-directed RNA polymerase (Hepacivirus hominis) (UniProt O39930); assay: Inhibition of NS5B polymerase in HCV genotype 1b/4a chimeric replicon infected in human HuH7 replicon cells after 5 days by RT-PCR analysis; assay type: cell-based
[18] = Mitochondrial toxicity in human HepG2 cells assessed as reduction in cell viability after 3 days in presence of galactose supplemented media by ATP depletion assay; assay type: cell-based
[19] = Drug metabolism in human HuH7 cells assessed as Tmax for NTP formation at 10 uM after 2 to 48 hrs by LC-MS/MS analysis; assay type: ADME, cell-based; conditions: huh-7, 10 µM
[20] = Stability in human plasma assessed as compound remaining at 2 uM after 120 mins by LC/MS/MS analysis; assay type: ADME, cell-free; conditions: read-out: Stability
[21] = Drug uptake in Beagle dog liver at 10 mg/kg, po measured up to 4 hrs by LC-MS/MS analysis; conditions: in vivo, BLD = below limit of detection
[22] = in vitro; conditions: human, liver microsomes
[23] = Stability in simulated intestinal fluid after 24 hrs by LC/MS/MS analysis; assay type: ADME; conditions: simulated gi fluid
[24] = in vitro; conditions: human, liver microsomes; remark: listed apart in the source
[25] = system: Bone marrow cell; assay: Cytotoxicity against human bone marrow cells assessed as inhibition of burst forming unit-erythroid after 14 days by FACS analysis; assay type: cell-based; conditions: 336 h
[26] = Cardiotoxicity against human embryonic stem cell-induced ventricular cardiomyocytes administered on day 7 and measured on day 10 after 30 mins incubation by CellTiter Glo assay; assay type: toxicity, cell-based, Cardiac muscle cell
[27] = target: RNA-directed RNA polymerase (Hepacivirus hominis) (UniProt O39930); assay: Inhibition of NS5B polymerase in HCV genotype 1b/5a chimeric replicon infected in human HuH7 replicon cells after 5 days by RT-PCR analysis; assay type: cell-based
[28] = Half life in human intestinal microsomes by LC/MS/MS analysis; assay type: ADME, Intestine, Microsome
[29] = in vitro; conditions: human, liver microsomes; remark: listed apart in the source
[30] = Mitochondrial toxicity in human HepG2 cells assessed as reduction in cell viability after 3 days in presence of glucose supplemented media by ATP depletion assay; assay type: cell-based
[31] = system: Bone marrow cell; assay: Cytotoxicity against human bone marrow cells assessed as inhibition of colony-forming unit-granulocyte after 14 days by FACS analysis; assay type: cell-based; conditions: 336 h
[32] = in vitro; conditions: human, liver microsomes; remark: listed apart in the source
[33] = target: RNA-directed RNA polymerase (Hepacivirus hominis) (UniProt O39930); assay: Inhibition of NS5B polymerase in HCV genotype 2a infected in human HuH7 replicon cells after 5 days by RT-PCR analysis; assay type: cell-based; conditions: Hepatitis C virus subtype 2a
[34] = target: RNA-directed RNA polymerase (Hepacivirus hominis) (UniProt O39930); conditions: genotype 1b/3a
[35] = Inhibition of human DNA polymerase gamma using 5-end radiolabeled 24nt to 48nt DNA as primer template after 120 mins in presence of dCTP/dGTP/dTTP/dATP by PAGE analysis
[36] = target: DNA polymerase beta (Homo sapiens, UniProt P06746); assay: Inhibition of human DNA polymerase beta using 5-end radiolabeled 24nt to 48nt DNA as primer template after 5 mins in presence of dCTP/dGTP/dTTP/dATP by PAGE analysis
[37] = target: T1, DNA polymerase alpha catalytic subunit (Homo sapiens, UniProt P09884); assay: Inhibition of human DNA polymerase alpha using 5-end radiolabeled 24nt to 48nt DNA as primer template after 5 mins in presence of dCTP/dGTP/dTTP/dATP by PAGE analysis
T1 sequence (P09884 whole entry): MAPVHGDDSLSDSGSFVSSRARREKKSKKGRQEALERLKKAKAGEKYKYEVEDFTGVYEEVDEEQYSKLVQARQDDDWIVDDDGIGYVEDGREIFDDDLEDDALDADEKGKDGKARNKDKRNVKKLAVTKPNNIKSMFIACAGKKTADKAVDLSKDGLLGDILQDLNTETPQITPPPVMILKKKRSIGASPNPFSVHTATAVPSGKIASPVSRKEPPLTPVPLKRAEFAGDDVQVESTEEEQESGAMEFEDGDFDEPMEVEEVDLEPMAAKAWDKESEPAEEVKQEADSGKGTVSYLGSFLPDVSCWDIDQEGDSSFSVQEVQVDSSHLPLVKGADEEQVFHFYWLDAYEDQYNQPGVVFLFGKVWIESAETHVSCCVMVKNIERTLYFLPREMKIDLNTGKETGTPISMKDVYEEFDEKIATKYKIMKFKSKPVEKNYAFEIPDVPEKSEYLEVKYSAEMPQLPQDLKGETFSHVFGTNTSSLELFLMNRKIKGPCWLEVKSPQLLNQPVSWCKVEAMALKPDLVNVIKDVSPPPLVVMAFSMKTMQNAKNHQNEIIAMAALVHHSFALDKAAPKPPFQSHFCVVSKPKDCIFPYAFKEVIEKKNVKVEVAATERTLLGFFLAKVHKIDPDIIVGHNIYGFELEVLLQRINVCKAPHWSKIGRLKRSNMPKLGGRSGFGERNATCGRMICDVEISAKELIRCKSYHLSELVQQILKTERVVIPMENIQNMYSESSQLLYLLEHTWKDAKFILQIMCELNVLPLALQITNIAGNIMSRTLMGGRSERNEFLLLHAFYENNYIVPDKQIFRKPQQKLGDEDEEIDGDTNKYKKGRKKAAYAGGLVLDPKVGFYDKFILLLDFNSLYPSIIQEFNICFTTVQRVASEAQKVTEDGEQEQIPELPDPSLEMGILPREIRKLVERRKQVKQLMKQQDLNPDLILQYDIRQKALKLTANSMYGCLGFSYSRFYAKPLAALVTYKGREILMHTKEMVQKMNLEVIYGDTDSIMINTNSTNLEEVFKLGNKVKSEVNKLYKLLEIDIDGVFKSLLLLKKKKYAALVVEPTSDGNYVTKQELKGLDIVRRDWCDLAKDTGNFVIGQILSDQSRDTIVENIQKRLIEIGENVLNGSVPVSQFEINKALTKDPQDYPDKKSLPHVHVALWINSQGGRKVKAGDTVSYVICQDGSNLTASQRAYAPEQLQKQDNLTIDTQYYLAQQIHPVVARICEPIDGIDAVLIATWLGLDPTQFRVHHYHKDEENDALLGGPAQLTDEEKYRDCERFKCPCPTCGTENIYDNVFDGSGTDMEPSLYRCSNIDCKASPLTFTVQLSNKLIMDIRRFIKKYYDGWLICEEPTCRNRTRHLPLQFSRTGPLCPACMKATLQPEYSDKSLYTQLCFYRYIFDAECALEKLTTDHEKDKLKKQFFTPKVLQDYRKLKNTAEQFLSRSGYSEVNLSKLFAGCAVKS

Sequence of DNA-directed RNA polymerase, mitochondrial (O00411 whole entry): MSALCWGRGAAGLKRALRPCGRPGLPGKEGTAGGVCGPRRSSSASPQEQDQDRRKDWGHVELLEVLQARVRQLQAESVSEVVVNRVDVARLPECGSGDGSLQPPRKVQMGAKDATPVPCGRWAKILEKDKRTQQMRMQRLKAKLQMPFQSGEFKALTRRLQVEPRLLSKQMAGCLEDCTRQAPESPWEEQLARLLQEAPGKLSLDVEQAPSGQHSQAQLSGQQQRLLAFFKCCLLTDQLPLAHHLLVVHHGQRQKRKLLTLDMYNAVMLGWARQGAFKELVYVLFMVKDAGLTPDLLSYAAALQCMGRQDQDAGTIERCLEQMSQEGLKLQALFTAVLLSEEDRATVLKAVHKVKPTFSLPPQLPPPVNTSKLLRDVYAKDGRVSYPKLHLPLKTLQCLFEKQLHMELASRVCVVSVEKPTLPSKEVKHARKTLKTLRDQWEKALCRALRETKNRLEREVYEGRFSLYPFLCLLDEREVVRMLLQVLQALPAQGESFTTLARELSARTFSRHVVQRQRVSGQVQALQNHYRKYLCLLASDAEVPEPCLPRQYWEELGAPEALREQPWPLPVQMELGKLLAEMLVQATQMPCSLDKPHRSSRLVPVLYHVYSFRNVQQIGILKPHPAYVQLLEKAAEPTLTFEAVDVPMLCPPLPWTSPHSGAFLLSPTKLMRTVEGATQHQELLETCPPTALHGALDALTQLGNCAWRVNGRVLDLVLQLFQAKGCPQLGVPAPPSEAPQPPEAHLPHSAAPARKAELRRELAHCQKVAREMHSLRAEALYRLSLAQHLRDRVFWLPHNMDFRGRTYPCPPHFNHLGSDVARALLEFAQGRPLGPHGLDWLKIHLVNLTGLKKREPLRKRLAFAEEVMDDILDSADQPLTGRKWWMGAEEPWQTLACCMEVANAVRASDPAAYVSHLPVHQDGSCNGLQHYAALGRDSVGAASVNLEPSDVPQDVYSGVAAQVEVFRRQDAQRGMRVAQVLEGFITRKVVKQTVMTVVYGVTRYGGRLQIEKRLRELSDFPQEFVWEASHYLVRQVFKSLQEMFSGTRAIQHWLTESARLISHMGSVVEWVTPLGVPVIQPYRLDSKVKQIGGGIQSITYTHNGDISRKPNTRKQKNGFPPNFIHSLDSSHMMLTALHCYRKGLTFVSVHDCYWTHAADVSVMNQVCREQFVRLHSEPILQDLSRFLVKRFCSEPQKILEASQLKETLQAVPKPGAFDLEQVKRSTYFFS
Sequence of RNA-directed RNA polymerase (Hepacivirus hominis) (O39930 1-591): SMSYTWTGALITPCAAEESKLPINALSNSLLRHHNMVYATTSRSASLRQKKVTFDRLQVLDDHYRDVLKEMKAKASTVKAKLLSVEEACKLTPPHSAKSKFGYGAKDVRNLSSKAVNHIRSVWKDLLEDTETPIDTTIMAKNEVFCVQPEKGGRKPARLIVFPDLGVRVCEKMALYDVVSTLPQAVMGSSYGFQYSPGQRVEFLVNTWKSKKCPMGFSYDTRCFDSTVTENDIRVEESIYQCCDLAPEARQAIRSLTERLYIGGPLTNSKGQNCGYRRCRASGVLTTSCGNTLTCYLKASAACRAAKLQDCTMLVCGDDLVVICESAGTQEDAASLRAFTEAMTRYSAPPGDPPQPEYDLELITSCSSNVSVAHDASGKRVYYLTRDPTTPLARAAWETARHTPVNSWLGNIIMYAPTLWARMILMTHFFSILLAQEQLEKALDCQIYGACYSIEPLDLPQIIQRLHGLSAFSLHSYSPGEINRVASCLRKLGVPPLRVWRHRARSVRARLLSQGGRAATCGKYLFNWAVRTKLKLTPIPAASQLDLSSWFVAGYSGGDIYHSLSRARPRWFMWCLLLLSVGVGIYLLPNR

EC90 [2]: > 10 µM
SMILES: Nc1nc2c(ncn2[C@@H]2O[C@H](CO)[C@@H](O)[C@]2(F)Br)c(=O)[nH]1
CC50 [1]: > 10 µM
CC50 at 96 h [3]: > 100 µM
CC50 [4]: > 100 µM

EC90 [2]: 9.5 µM
SMILES: Nc1ccn([C@@H]2O[C@H](CO)[C@@H](O)[C@]2(F)Br)c(=O)n1
CC50 [1]: > 10 µM
CC50 at 96 h [3]: > 100 µM
CC50 [4]: > 100 µM

SMILES: CC(C)OC(=O)[C@H](C)NP(=O)(OC[C@H]1O[C@@H](n2cnc3c(=O)[nH]c(N)nc32)[C@](F)(Br)[C@H]1O)Oc1ccccc1 (stereo partly drawn)
EC90 [2]: 1.8 µM
CC50 at 96 h [3]: > 100 µM

SMILES: CC(C)OC(=O)[C@H](C)NP(=O)(OC[C@H]1O[C@@H](n2cnc3c(N)ncnc32)[C@](F)(Br)[C@H]1O)Oc1ccccc1 (stereo partly drawn)
CC50 [5]: > 10 µM
CC50 at 120 h [6]: > 100 µM
CC50 at 96 h [3]: > 100 µM

Activity [7]: 9.8%
SMILES: C[C@@]1(O)[C@H](O)[C@@H](COP(=O)(O)OP(=O)(O)OP(=O)(O)O)O[C@H]1n1ccc(=O)[nH]c1=O

SMILES: CC(C)OC(=O)[C@H](C)NP(=O)(OC[C@H]1O[C@@H](n2ccc(=O)[nH]c2=O)[C@](F)(Br)[C@H]1O)Oc1ccccc1 (mixture of isomers)
Activity [8]: 140%
IC50 at 14 days [9]: > 50 µM
inhibition at 336 h, 50 µM [10]: 40%
CC50 [1]: > 10 µM
EC90 [2]: 0.9 µM
IC50 at 14 days [11]: > 50 µM
remaining at 2 h, 2 µM [12]: 0.2%
CC50 at 120 h [6]: > 100 µM
CC50 at 96 h [3]: > 100 µM
remaining at 2 h, 2 µM [13]: 100%
inhibition at 336 h, 50 µM [14]: 39%

SMILES: CC(C)OC(=O)[C@H](C)N[P@@](=O)(OC[C@H]1O[C@@H](n2ccc(=O)[nH]c2=O)C(F)(Br)C1O)Oc1ccccc1 (single isomer, unassigned)
IC50 at 14 days [15]: > 100 µM
Activity [8]: 100%
Drug metabolism [16]: Metabolite_Notdetected
EC90 [17]: 0.87 µM
IC50 at 14 days [9]: > 50 µM
IC50 at 3 days [18]: > 100 µM
inhibition at 336 h, 50 µM [10]: < 1%
Tmax [19]: 24 h
remaining at 2 h, 2 µM [20]: 72%
Drug uptake [21]: Bld
half-life [22]: 0.307 h
Stability [23]: Stable
EC90 [2]: 0.53 to 2.4 µM
remaining at 1 h [24]: 26.6%
IC50 [25]: > 100 µM
IC50 at 3 days [26]: > 100 µM
IC50 at 14 days [11]: > 50 µM
EC90 [27]: 0.8 µM
half-life [28]: 2.2 h
CC50 [5]: > 10 µM
CC50 at 120 h [6]: > 100 µM
microsomal CLint [29]: 75.3 µL/min/mg
IC50 at 3 days [30]: > 100 µM
CC50 at 96 h [3]: > 100 µM
IC50 [31]: > 100 µM
CLint scaled [32]: 67.8 mL/min/kg
inhibition at 336 h, 50 µM [14]: 31%
EC90 [33]: 0.83 µM
EC90 [34]: 1.6 µM

SMILES: CC(C)OC(=O)[C@H](C)NP(=O)(OC[C@H]1O[C@@H](n2ccc(N)nc2=O)C(F)(Br)C1O)Oc1ccccc1 (single isomer, unassigned)
CC50 [1]: > 10 µM
EC90 [2]: 1.8 µM
CC50 at 96 h [3]: > 100 µM
CC50 [4]: > 100 µM

EC90 [2]: > 10 µM
SMILES: Nc1ncnc2c1ncn2[C@@H]1O[C@H](CO)C(O)C1(F)Br (single isomer, unassigned)
CC50 [1]: > 10 µM
CC50 at 96 h [3]: > 100 µM
CC50 [4]: > 100 µM

SMILES: O=C(O)Cc1ccccc1Nc1c(Cl)cccc1Cl [DICLOFENAC]
CLint scaled [32]: 116 mL/min/kg

SMILES: C[C@@]1(F)[C@H](O)[C@@H](COP(=O)(O)OP(=O)(O)OP(=O)(O)O)O[C@H]1n1ccc(=O)[nH]c1=O [GS-461203]
IC50 [35]: > 100 µM
Activity [7]: 3.1%
IC50 [36]: > 100 µM
IC50 [37]: > 100 µM

SMILES: O=c1ccn([C@@H]2O[C@H](COP(=O)(O)OP(=O)(O)OP(=O)(O)O)[C@@H](O)[C@H]2O)c(=O)[nH]1 [URIDINE TRIPHOSPHATE]
Activity [7]: 100%
